Experiment in all cases: relative viability (nuclei count vs DMSO), 5 days (fraction); higher = more cells survive
Compound in assay [1]: CC1=CC(=CC=C1)NC2=NC(=CS2)C3=CC=NC=C3 + COc1cccc2cc(-c3nc([C@H]4CC[C@H](C(=O)O)CC4)n4ncnc(N)c34)[nH]c12 [OSI-027] (partner 0.5 µM)
The method in brief: (§1)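 Lung cancer cell lines, seeded in 1536-well plates, were treated the following day by pin tool with a single drug or with five library-drug doses (not always all listed) in √10 steps on top of a fixed anchor-drug dose. Cells were fixed and nuclei stained in one step after 5 days, and nuclei were counted. Relative viability is the nuclei count for treated wells divided by that for vehicle wells, reported as medians of duplicate plates.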

Compound in assay [2]: CC1=CC(=CC=C1)NC2=NC(=CS2)C3=CC=NC=C3 + Cc1cc(Nc2cc(N3CCN(C)CC3)nc(Sc3ccc(NC(=O)C4CC4)cc3)n2)n[nH]1 [Tozasertib] (partner 0.1 µM)
The method in brief: as §1

Compound in assay [3]: CC1=CC(=CC=C1)NC2=NC(=CS2)C3=CC=NC=C3 + NC(=O)Nc1cc(-c2cccc(F)c2)sc1C(=O)N[C@H]1CCCNC1 [AZD7762] (partner 0.2 µM)
The method in brief:
as §1

Compound in the assay “Masitinib + Alpelisib”: Cc1ccc(NC(=O)c2ccc(CN3CCN(C)CC3)cc2)cc1Nc1nc(-c2cccnc2)cs1 [Masitinib] + Cc1nc(NC(=O)N2CCC[C@H]2C(N)=O)sc1-c1ccnc(C(C)(C)C(F)(F)F)c1 [Alpelisib] (partner 2 µM)
The method in brief: as §1

Take NCI-H441: the relative viability in assay [1] (first compound 0.08 µM) amounted to 0.492; in assay [1] (first compound 0.253 µM), 0.499; in assay [1] (first compound 0.8 µM) it was 0.605; in assay [1] (first compound 2.53 µM), 0.61; in assay [1] (first compound 8 µM), 0.672; in assay [2] (first compound 0.08 µM), 0.617. The relative viability came out at 0.536 in assay [2] (first compound 0.253 µM); 0.527 in assay [2] (first compound 0.8 µM); 0.492 in assay [2] (first compound 2.53 µM); 0.484 in assay [2] (first compound 8 µM); 1.1 in assay [3] (first compound 0.08 µM); 1.01 in assay [3] (first compound 0.253 µM). Moreover, the relative viability amounted to 1.1 in assay [3] (first compound 0.8 µM); 1.35 in assay [3] (first compound 2.53 µM); 0.997 in assay [3] (first compound 8 µM); 0.675 in the assay with Masitinib + Alpelisib (first compound 0.01 µM); 0.822 in the assay with Masitinib + Alpelisib (first compound 0.03162 µM); 0.873 with Masitinib + Alpelisib (first compound 0.1 µM). In addition, the relative viability with Masitinib + Alpelisib (first compound 0.3162 µM) was 0.703; with Masitinib + Alpelisib (first compound 1 µM) it was 0.653.

Take NCI-H358: the relative viability in assay [1] (first compound 0.08 µM) worked out at 0.674; in assay [1] (first compound 0.253 µM) it was 0.821; in assay [1] (first compound 0.8 µM), 0.715; in assay [1] (first compound 2.53 µM), 0.82; in assay [1] (first compound 8 µM) it was 0.728; in assay [2] (first compound 0.08 µM) it was 0.112. Further, the relative viability in assay [2] (first compound 0.253 µM) is 0.116; in assay [2] (first compound 0.8 µM), 0.11; in assay [2] (first compound 2.53 µM), 0.118; in assay [2] (first compound 8 µM), 0.101; in assay [3] (first compound 0.253 µM), 0.594; in assay [3] (first compound 0.8 µM), 0.532. Besides, the relative viability was 0.521 in assay [3] (first compound 2.53 µM); 0.542 in assay [3] (first compound 8 µM); 0.734 in the assay with Masitinib + Alpelisib (first compound 0.01 µM); 0.802 in the assay with Masitinib + Alpelisib (first compound 0.03162 µM); 0.813 with Masitinib + Alpelisib (first compound 0.1 µM); 0.788 with Masitinib + Alpelisib (first compound 0.3162 µM). Moreover, in the assay with Masitinib + Alpelisib (first compound 1 µM), the relative viability was 0.852.

Turning to NCI-H1395, the relative viability in assay [1] (first compound 0.08 µM) turned out to be 0.555; in assay [1] (first compound 0.253 µM), 0.567; in assay [1] (first compound 0.8 µM), 0.663; in assay [1] (first compound 2.53 µM), 0.505; in assay [1] (first compound 8 µM), 0.638; in assay [2] (first compound 0.08 µM), 0.604. In addition, the relative viability in assay [2] (first compound 0.253 µM) was found to be 0.782; in assay [2] (first compound 0.8 µM) it was 0.689; in assay [2] (first compound 2.53 µM) it was 0.669; in assay [2] (first compound 8 µM), 0.693; in assay [3] (first compound 0.08 µM), 0.401; in assay [3] (first compound 0.8 µM) it was 0.393. Also, the relative viability in assay [3] (first compound 2.53 µM) is 0.352; in assay [3] (first compound 8 µM), 0.336; in the assay with Masitinib + Alpelisib (first compound 0.01 µM), 1.12; in the assay with Masitinib + Alpelisib (first compound 0.03162 µM), 1.01; in the assay with Masitinib + Alpelisib (first compound 0.1 µM), 1.1; with Masitinib + Alpelisib (first compound 0.3162 µM), 1.16. Moreover, the relative viability with Masitinib + Alpelisib (first compound 1 µM) stood at 1.09.

For PC-14, the relative viability in assay [1] (first compound 0.08 µM) came out at 0.712; in assay [1] (first compound 0.253 µM), 0.833; in assay [1] (first compound 0.8 µM), 0.795; in assay [1] (first compound 2.53 µM), 0.826; in assay [1] (first compound 8 µM) it was 0.702; in assay [2] (first compound 0.08 µM) it was 0.527. The relative viability in assay [2] (first compound 0.253 µM) was 0.58; in assay [2] (first compound 0.8 µM) it was 0.497; in assay [2] (first compound 2.53 µM) it was 0.526; in assay [2] (first compound 8 µM) it was 0.555; in assay [3] (first compound 0.08 µM), 0.254; in assay [3] (first compound 0.253 µM) it was 0.28. In addition, the relative viability in assay [3] (first compound 0.8 µM) was 0.383; in assay [3] (first compound 2.53 µM), 0.247; in assay [3] (first compound 8 µM), 0.316; with Masitinib + Alpelisib (first compound 0.01 µM), 0.915; with Masitinib + Alpelisib (first compound 0.03162 µM), 0.865; in the assay with Masitinib + Alpelisib (first compound 0.1 µM), 1.11. The relative viability with Masitinib + Alpelisib (first compound 0.3162 µM) amounted to 1.01; with Masitinib + Alpelisib (first compound 1 µM), 0.846.

CAL-12T: the relative viability in assay [1] (first compound 0.08 µM) came to 0.45; in assay [1] (first compound 0.253 µM), 0.546; in assay [1] (first compound 0.8 µM) it was 0.542; in assay [1] (first compound 2.53 µM) it was 0.469; in assay [1] (first compound 8 µM), 0.528; in assay [2] (first compound 0.08 µM), 0.381. Also, the relative viability in assay [2] (first compound 0.253 µM) stood at 0.277; in assay [2] (first compound 0.8 µM) it was 0.32; in assay [2] (first compound 2.53 µM), 0.25; in assay [2] (first compound 8 µM), 0.185; in assay [3] (first compound 0.08 µM) it was 0.527; in assay [3] (first compound 0.253 µM), 0.63. Also, the relative viability was determined as 0.604 in assay [3] (first compound 0.8 µM); 0.516 in assay [3] (first compound 2.53 µM); 0.561 in assay [3] (first compound 8 µM); 1.21 with Masitinib + Alpelisib (first compound 0.01 µM); 1.2 in the assay with Masitinib + Alpelisib (first compound 0.03162 µM); 1.18 with Masitinib + Alpelisib (first compound 0.1 µM). The relative viability is 1.36 with Masitinib + Alpelisib (first compound 0.3162 µM) and 1.18 with Masitinib + Alpelisib (first compound 1 µM).

The record behind these values is the supplement of paper PMC10307832.
